Experimental data as given in US11091428B2 (HAPLOGEN GMBH, priority 2016, dated 2021).

Legend:
PLA2G16 = biological target: T1, PLA2G16 (Homo sapiens, UniProt P53816); experiment: Enzyme activity assay for PLA2G16 (Red/Green BODIPY PC-A2 fluorescence); assay type: biochemical; details: His-tagged PLA2G16, 4 min pre-incubation, 2 nM to 50 μM; read-out: IC50 values of the compounds determined in the enzyme activity assay for PLA2G16
T1 construct: Hexa-His (N); made in house; host or cells: E. coli BL21(DE3)
T1 sequence (P53816 1-162): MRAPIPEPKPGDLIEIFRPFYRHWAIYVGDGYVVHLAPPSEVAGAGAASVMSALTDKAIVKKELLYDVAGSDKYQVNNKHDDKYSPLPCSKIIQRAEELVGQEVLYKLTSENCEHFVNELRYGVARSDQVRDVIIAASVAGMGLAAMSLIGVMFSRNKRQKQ
Summary of the method: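 IC50 from non-linear fits of fluorescence rise (480/530 nm, 10 min) after adding Red/Green BODIPY PC-A2 mixed with DOPC/DOPG/cholesterol liposomes. Recombinant His-tagged human enzyme, bacterially expressed, was first exposed to inhibitor (2 nM–50 μM final) for 4 min in 50 mM Tris pH 8.5, 100 mM NaCl, 5 mM glutathione.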

[1] = test system: picornaviruses (CVB1, HRV-A2, HRV-A23, EV-68); experiment: Anti-picornavirus cytopathic effect (CPE) reduction assay on HeLa H1 cells; assay type: cell-based; details: Enterovirus B, HeLa H1, 48 h, HeLa H1 cells, 48 h, category from averaging the EC50 values from four picornaviruses (CVB1, HRV-A2, HRV-A23, EV68); read-out: EC50 values of the compounds determined in the anti-picornavirus assay
Summary of the method: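 Cytopathic-effect protection: EC50 from non-linear regression of cell viability (CellTiterBlue, 560/590 nm) 48 h post-infection, scaled between infected and mock-infected vehicle wells. Compound dilutions added to HeLa H1 cells 2 h before virus (MOI causing complete CPE within 2 days), in DMEM + 2% FBS; categories average the four viruses.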

SMILES | IC50 (PLA2G16) [µM] | EC50 [1] [µM]
Cc1nc(C)n(CCCNC(=O)C(=O)C2CCC(=O)N2Cc2ccccc2)n1 (stereo not shown) [FP 231, 2-(1-Benzyl-5-oxopyrrolidin-2-yl)-N-[3-(3,5-dimethyl-1H-1,2,4-triazol-1-yl)propyl]-2-oxoacetamide] | < 1 | > 10
CC(C)C(=O)N1CC(NC(=O)C(=O)[C@H]2CCC(=O)N2Cc2ccccc2)C1 [FP 316, 2-[(2R)-1-Benzyl-5-oxopyrrolidin-2-yl]-N-[1-(2-methylpropanoyl)azetidin-3-yl]-2-oxoacetamide] | < 1 | 1 to 10
O=C(NCC1CCCCC1)C(=O)C1CCC(=O)N1Cc1ccc2c(c1)CNC2=O (stereo not shown) [FP 244, N-(Cyclohexylmethyl)-2-oxo-2-{5-oxo-1-[(1-oxo-2,3-dihydro-1H-isoindol-5-yl)methyl]-pyrrolidin-2-yl}acetamide] | < 1 | 1 to 10
O=C(NC1CCN(S(=O)(=O)C2CC2)CC1)C(=O)[C@H]1CCC(=O)N1Cc1ccccc1 [FP 320, 2-[(2R)-1-Benzyl-5-oxopyrrolidin-2-yl]-N-[1-(cyclopropanesulfonyl)piperidin-4-yl]-2-oxoacetamide] | < 1 | < 1
C[C@@H]1C[C@H]1NC(=O)C(=O)[C@H]1CCC(=O)N1Cc1ccccc1 [FP 271, 2-[(2R)-1-Benzyl-5-oxopyrrolidin-2-yl]-N-[(1R,2R)-2-methylcyclopropyl]-2-oxoacetamide] | < 1 | < 1
O=CN(Cc1ccccc1)C(C(=O)C(=O)NCC1CC1)C1CCOCC1 (stereo not shown) [FP 71, 3-(N-Benzylformamido)-N-(cyclopropylmethyl)-3-(oxan-4-yl)-2-oxopropanamide] | < 1 | 1 to 10
C[C@@H]1CC(=O)N(Cc2ccccc2)[C@H]1C(=O)C(=O)NCC1CC1 (single isomer, unassigned) [FP 336] | < 1 | < 1
CC(NS(=O)(=O)Cc1ccccc1)C(=O)C(=O)NCC1CC1 (stereo not shown) [FP 188, N-(Cyclopropylmethyl)-2-oxo-3-(phenylmethanesulfonamido)butanamide] | < 1 | > 10
CC(C(=O)C(=O)NCC1CCCCC1)N(C=O)c1cc[nH]c(=O)c1 (stereo not shown) [FP 192, N-(Cyclohexylmethyl)-2-oxo-3-[N-(2-oxo-1,2-dihydropyridin-4-yl)formamido]butanamide] | < 1 | > 10
O=C(COCC1CCCCC1)C(=O)NCC1CC1 [FP 129, 3-(Cyclohexylmethoxy)-N-(cyclopropylmethyl)-2-oxopropanamide] | < 1 | > 10
O=C(NC1CC1)C(=O)C1CCC(=O)N1CC1CCCC1 (stereo not shown) [FP 279, 2-[1-(Cyclopentylmethyl)-5-oxopyrrolidin-2-yl]-N-cyclopropyl-2-oxoacetamide] | < 1 | 1 to 10
CC(NC(=O)c1ccccc1Cl)C(=O)C(=O)NCC1CC1 (stereo not shown) [FP 169, 3-[(2-Chlorophenyl)formamido]-(cyclopropylmethyl)-2-oxobutanamide] | < 1 | 1 to 10
O=C(NCC1CCOCC1)C(=O)C1CCC(=O)N1Cc1ccc(Cl)cc1 (stereo not shown) [FP 235, 2-{1-[(4-Chlorophenyl)methyl]-5-oxopyrrolidin-2-yl}-N-[(oxan-4-yl)methyl]-2-oxoacetamide] | < 1 | 1 to 10
COc1ccccc1N(C=O)C(C)C(=O)C(=O)NCc1ccccc1C (stereo not shown) [FP 98, 3-[N-(2-Methoxyphenyl)formamido]-N-[(2-methylphenyl)methyl]-2-oxobutanamide] | < 1 | 1 to 10
CC(NC(=O)c1ccncc1)C(=O)C(=O)NCC1CCCCC1 (stereo not shown) [FP 205, N-(Cyclohexylmethyl)-2-oxo-3-[(pyridin-4-yl)formamido]butanamide] | < 1 | 1 to 10
CC(C)NC(=O)C(=O)C(C)N(C=O)Cc1ccccc1 (stereo not shown) [FP 57, 3-(N-Benzylformamido)-2-oxo-N-(propan-2-yl)butanamide] | < 1 | 1 to 10
C[C@H]1CC(=O)N(Cc2ccccc2)[C@H]1C(=O)C(=O)NC1CC1 (single isomer, unassigned) [FP 341] | < 1 | 1 to 10
